Results: US20210338692A1, “A 19-NOR C3,3-DISUBSTITUTED C21-N-PYRAZOLYL STEROID AND METHODS OF USE THEREOF” (SAGE THERAPEUTICS, INC., priority 2018, published 2021)

What was measured:
[1] = test system: female subjects diagnosed with severe postpartum depression; assay: Placebo-controlled study of Compound 1 in postpartum depression (HAM-D, MADRS, HAM-A, CGI-I); format: in vivo, human; details: 30 mg once a day for 15 days
Method: Compound 1 was investigated for use in subjects with depression. Female subjects (18-65 years old) diagnosed with severe postpartum depression (PDD) with a HAM-D total score of greater than or equal to 26 at screening and Day 1 were used in the investigation. The subjects were dosed once per day with capsules containing 30 mg of Compound 1. The dose could be adjusted to capsules containing 20 mg of Compound 1 if the 30 mg dose was not tolerated. Subjects not dosed with Compound 1 were dosed with a placebo. In total, 78 subjects were treated with Compound 1 at 30 mg and 73 subjects were treated with placebo.
Assuming a 2-sided test at an alpha level of 0.05, a sample size of approximately 65 evaluable subjects per treatment group provided 90% power to detect a placebo-adjusted treatment difference of approximately 4 points in the primary endpoint, change from baseline in HAM-D total score at Day 15 assuming standard deviation (SD) of 7 points. The change from baseline in the HAM-D total score was analyzed using a mixed effects model for repeated measures (MMRM). The model included the change from baseline at each visit as the dependent variable. The main comparison was (difference in least mean square [LSMEAN]) between Compound 1 Capsules and placebo at the 15-day timepoint. […]

[2] = test system: synaptic and extrasynaptic GABAA receptors; details: cited from earlier work
subjects with MDD = assay: Earlier clinical studies of Compound 1 in subjects with MDD (Phase 2 study, previous clinical trials)

C[C@@]1(O)CC[C@H]2[C@H](CC[C@@H]3[C@@H]2CC[C@]2(C)[C@@H](C(=O)Cn4cc(C#N)cn4)CC[C@@H]32)C1 [Compound 1]
overall efficacy in postpartum depression compared to placebo [1]: effective at treating postpartum depression | mode of action at GABAA receptors [2]: positive allosteric modulator of GABAA receptors | efficacy and tolerability of the dose level (subjects with MDD; 30 mg per day, Phase 2 study in subjects with MDD): efficacious and well-tolerated | subjects with HAM-D score of 16 to 21 among those achieving remission or response at Day 15 (subjects with MDD; Day 42): 18.2% | subjects with HAM-D≥22 among those achieving remission or response at Day 15 (subjects with MDD; Day 42): 6.1% | adverse effect when administered in the morning (subjects with MDD; previous clinical trials, administered in the morning): sedation/somnolence observed | tolerability when given in the evening (subjects with MDD; previous clinical trials, given in the evening): improved tolerability
